Where “and” joins values, the source holds several entries; their conditions need not be identical. Identical values can stand only once. Like-named read-outs stand apart in the source and are kept apart here.
Legend:
[1] = Conscious telemetry-instrumented dog cardiovascular safety pharmacology; assay type: in vivo; conditions: conscious beagle, IV, at 3-mg/kg dose
Source text: ABBV-467 was profiled in safety pharmacology studies in anesthetized (non-Good Laboratory Practice [GLP]) and telemetry-instrumented conscious (GLP) dog cardiovascular assays (Supplementary Table S6).
(§1) Supplementary Table S6: Maj or findings in safety pharmac ology cardiovascular studies c onduc ted with ABBV- […]
(§2) Species/Strain Route of Concentrations Sex and N Results
(§3) Administration or Doses per Group […]
(§4) Anesthetized IV 1, 3, and Male No effects up to a plasma concentration dog 10 m g/ k gN=4 o f 16 .83 µg/mL on […]
(§5) aged 8-12 months • Heart rate
(§6) • Systemic vascular resistance
(§7) At 67 .23 mg/m L, an increase in heart rate and decrease in systemic vascular
(§8) Conscious IV 0, 0.3, 1, and Male No effects on blood pressure, heart dog 3 mg/kg N=5–6a rate, or ECG parameters at any dose beagle (plasma concentration of 6.53 µg/mL at (aged 8-12 months 3-m g/ k g do s e )
ECG, electrocardiogram; IC50, half maximal inhibitory concentration; IV, intravenous; QTcV, QT interval correct ed accor ding to the Van de Water formula. No animals or data were excl uded from analysis . […] Healthy dogs, as determined by veterinary physical examination and clinical pathology, were selected for study based on availability without explicit randomization. […] Power analysis has shown a group size of 6 can statistically detect an approximately 20 % alteration in measured parameters w ith α =0.0 5. […]

[2] = molecular target: T1, dog MCL1 (Canis lupus familiaris, UniProt Q8HYS5); test: TR-FRET binding assay, MCL-1 orthologs; conditions: read-out: Ki, canine MCL-1
T1 construct: rhesus monkey (iso4, NM_001 1089 3 7, AA 171-327), dog (NM_001 0030 16, AA17 1- 327); made in house; host or cells: E. coli BL21(DE3)-T1R
Method: (§9) Binding affinities for MCL-1, BCL-2, BCL-XL, BCL-W, and BCL2-A1 were determined using a time-resolved fluorescence resonance energy transfer (FRET) assay. Test compounds were serially diluted in DMSO starting at […] (20× starting concentration; 100% DMSO followed by a 1:10 dilution of the compound DMSO plate into assay buffer); 10 µL of the compound in 10% DMSO was then transferred into a 384-well plate (low-volume Corning #3673 assay plate). Glutathione S-transferase (GST)-tagged recombinant BCL-2, BCL-XL, MCL-1, BCL-W, or BCL2-A1 protein (1 nM each) were mixed with 100 nM Oregon Green™-labeled f-BAK peptide probe and 1 nM Tb-labeled anti-GST antibody were mixed. Then 10 µL of a 2× protein/probe/antibody mix was added to each well of increasing concentrations of test compound in assay buffer (20 mM potassium phosphate, pH 7.6, 50 mM NaCl, 1 mM ethylenediaminetetraacetic acid disodium salt dihydrate, 0.05% pluronic acid F-68, 1 mM DL-dithiothreitol) at room temperature (final concentrations listed in Supplementary Table S2). The samples were then mixed on a shaker for 1 min and incubated for an additional 1 h at room temperature. For each assay plate, a probe/antibody and protein/antibody/probe mixture were included as a negative and a positive control, respectively. Fluorescence was measured on the EnVision™ (Perkin Elmer) using a 340/35-nm excitation filter and 520/525- (F-Bak) and 495/510-nm (Tb-labeled anti-glutathione S-transferase [GST] antibody) emission filters. Dissociation constants were determined using Wang’s equation[35]. The time-resolved FRET assay can be performed in the presence of varying concentrations of human serum to determine apparent half-maximal inhibitory concentration after serum protein binding.
(§10) Supplementary Table S10: MCL-1 ortholog information and ABBV-467 affinity across species […]
(§11) Mouse Mus musculus Rattus Canis lupus Macaca sp.
(§12) Protein name Mcl1 Mcl1 M CL1 M CL1 […]
(§13) Amino acid sequence homology determined with NCBI BLAST (http://blast.ncbi.nlm.nih.gov). […]

[3] = molecular target: T2, mouse Mcl1 (Mus musculus, UniProt P97287); test: TR-FRET binding assay, MCL-1 orthologs
T2 construct: made in house; host or cells: E. coli BL21(DE3)-T1R
Method: as §9, §10, §11, §12, §13

[4] = molecular target: T3, rat Mcl1 (Rattus norvegicus, UniProt Q9Z1P3); test: TR-FRET binding assay, MCL-1 orthologs
T3 construct: made in house; host or cells: E. coli BL21(DE3)-T1R
Method: as §9, §10, §11, §12, §13

[5] = molecular target: hERG (Homo sapiens, UniProt Q12809); test: hERG current, in vitro; assay type: cell-based; conditions: read-out: hERG tail current IC50
Method: as §1, §2, §3, §4, §5, §6, §7, §8
ECG, electrocardiogram; IC50, half maximal inhibitory concentration; IV, intravenous; QTcV, QT interval correct ed accor ding to the Van de Water formula. No animals or data were excl uded from analysis . Studies were approved by the animal use committee of Abbvie, Lake County, IL. Healthy dogs, as determined by veterinary physical examination and clinical pathology, were selected for study based on availability without explicit randomization. Conscious dog telemetry utiliz ed a Latin square design to randomize for dose order e ff ects. The same 6 dogs received all d oses. Power analysis has shown a group size of 6 can statistically detect an approximately 20 % alteration in measured parameters w ith α =0.0 5. […]

[6] = molecular target: BCL-2 (Homo sapiens, UniProt P10415); test: Time-resolved FRET binding assay; conditions: TR-FRET
Method: as §9

[7] = molecular target: T4, BCL2-A1 (Homo sapiens, UniProt Q16548); test: Time-resolved FRET binding assay; conditions: TR-FRET, individual determinations; read-out: Individual Ki, BCL2-A1
T4 sequence (Q16548 1-175): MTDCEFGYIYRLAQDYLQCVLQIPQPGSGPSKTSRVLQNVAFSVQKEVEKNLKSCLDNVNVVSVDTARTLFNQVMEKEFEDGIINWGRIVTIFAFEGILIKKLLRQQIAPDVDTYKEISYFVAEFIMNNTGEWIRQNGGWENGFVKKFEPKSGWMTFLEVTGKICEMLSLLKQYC
Method: as §9

[8] = molecular target: T5, BCL-W (Homo sapiens, UniProt Q92843); test: Time-resolved FRET binding assay
T5 sequence (Q92843 1-193): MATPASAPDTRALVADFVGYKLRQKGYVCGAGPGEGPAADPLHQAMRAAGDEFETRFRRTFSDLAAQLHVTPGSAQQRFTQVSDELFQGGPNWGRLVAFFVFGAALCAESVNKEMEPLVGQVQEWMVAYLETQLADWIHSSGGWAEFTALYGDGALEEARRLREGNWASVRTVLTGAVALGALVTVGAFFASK
Method: as §9

Chain of BCL-2 (P10415 whole entry): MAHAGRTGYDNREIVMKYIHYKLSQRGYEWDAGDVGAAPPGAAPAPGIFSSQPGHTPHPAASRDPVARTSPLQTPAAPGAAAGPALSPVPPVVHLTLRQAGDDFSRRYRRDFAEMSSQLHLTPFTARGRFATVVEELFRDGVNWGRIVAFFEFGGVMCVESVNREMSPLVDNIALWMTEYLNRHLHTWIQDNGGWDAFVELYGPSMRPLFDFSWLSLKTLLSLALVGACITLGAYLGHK
T1 sequence (Q8HYS5 171-327): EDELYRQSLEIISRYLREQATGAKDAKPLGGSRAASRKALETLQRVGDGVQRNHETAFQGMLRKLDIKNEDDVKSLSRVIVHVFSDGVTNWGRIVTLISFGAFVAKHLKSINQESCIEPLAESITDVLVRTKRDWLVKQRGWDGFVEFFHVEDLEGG
T3 sequence (Q9Z1P3 151-307): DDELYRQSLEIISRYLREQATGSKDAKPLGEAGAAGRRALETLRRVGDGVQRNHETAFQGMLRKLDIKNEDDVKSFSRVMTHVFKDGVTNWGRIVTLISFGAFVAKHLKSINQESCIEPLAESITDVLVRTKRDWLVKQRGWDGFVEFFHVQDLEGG
Chain of hERG (Q12809 whole entry): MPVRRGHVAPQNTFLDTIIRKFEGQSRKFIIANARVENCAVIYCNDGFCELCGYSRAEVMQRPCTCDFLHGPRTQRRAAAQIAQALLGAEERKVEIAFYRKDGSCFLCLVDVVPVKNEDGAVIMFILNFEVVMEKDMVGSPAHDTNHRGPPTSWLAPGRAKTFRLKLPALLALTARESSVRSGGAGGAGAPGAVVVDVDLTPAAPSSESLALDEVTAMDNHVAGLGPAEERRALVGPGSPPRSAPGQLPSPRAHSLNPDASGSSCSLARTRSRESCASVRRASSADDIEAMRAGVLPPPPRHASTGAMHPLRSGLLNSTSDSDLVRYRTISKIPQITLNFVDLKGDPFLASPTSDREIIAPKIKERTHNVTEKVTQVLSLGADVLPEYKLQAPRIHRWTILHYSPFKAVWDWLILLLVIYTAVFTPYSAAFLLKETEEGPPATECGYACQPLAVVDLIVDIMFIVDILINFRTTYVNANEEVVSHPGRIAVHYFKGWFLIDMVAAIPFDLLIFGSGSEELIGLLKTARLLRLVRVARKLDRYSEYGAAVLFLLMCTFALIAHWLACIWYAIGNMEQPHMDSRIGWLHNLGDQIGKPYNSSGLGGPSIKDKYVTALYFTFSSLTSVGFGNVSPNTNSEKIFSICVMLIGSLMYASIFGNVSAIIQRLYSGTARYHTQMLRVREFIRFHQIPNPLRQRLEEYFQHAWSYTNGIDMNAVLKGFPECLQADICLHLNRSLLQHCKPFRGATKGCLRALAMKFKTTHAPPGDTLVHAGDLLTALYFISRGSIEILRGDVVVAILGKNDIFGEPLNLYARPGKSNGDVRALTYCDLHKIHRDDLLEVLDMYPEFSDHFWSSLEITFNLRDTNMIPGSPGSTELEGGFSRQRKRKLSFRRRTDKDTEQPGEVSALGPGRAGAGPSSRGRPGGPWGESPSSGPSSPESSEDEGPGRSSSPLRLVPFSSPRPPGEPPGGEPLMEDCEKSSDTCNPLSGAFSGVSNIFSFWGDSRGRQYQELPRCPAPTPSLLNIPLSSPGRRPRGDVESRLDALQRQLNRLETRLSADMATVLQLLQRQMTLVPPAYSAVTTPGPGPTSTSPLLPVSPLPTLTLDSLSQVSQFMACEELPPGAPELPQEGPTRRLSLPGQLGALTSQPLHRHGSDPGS
T2 sequence (P97287 152-308): as the sequence (Q9Z1P3 151-307) above, with D1E, E3D, A26S, D71G, T81V, I111V, C116F, S123T counted along it

Cc1c(Cl)c2c(Cl)c(C)c1-c1c(-c3ccc(F)cc3)sc3ncnc(c13)O[C@@H](C(=O)O)Cc1cc(ccc1OCc1ccnc(-c3ccc(OC[C@H]4COCCO4)cc3)n1)OC[C@@H](CN1CCN(C)CC1)O2 [ABBV-467]
plasma concentration with no effects on blood pressure, heart rate, or ECG parameters [1]: 6530 ng/mL | Ki [2]: < 0.1 nM | affinity for the murine mcl1 [3]: substantially reduced affinity | Ki [4]: < 0.1 nM | IC50 [5]: > 20.3 µg/mL | Ki ([6]; arithmetic mean, read-out: Arithmetic Mean Ki, BCL-2): > 642 nM | Ki ([6]; individual determinations, read-out: Individual Ki, BCL-2): > 642 nM | Ki [7]: 402 nM and > 468 nM (2×) | Ki ([8]; TR-FRET, arithmetic mean, read-out: Arithmetic Mean Ki, BCL-W): > 247 nM | Ki ([8]; TR-FRET, individual determinations, read-out: Individual Ki, BCL-W): > 247 nM | Ki ([8]; read-out: TR-FRET, Ki, nM BCL-W): > 247 nM

— PMC10600239, “Selective MCL-1 inhibitor ABBV-467 is efficacious in tumor models but is associated with cardiac troponin increases in patients” (Communications Medicine, 2023)
